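Growth conditions: 96-well plates. Treatment: test compound, 48 hours, 5 concentrations. Analysis: linear interpolation between bracketing concentrations; unreached endpoints set to highest concentration. GI50: concentration for 50% inhibition of growth.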 Calls of active or inactive are those of the source. No stated cut-off is given here; in the data, active = GI50 up to about 1.1 µM and inactive = higher.
Columns and labels:
Assay in all cases: NCI tumour cell line growth inhibition, 48 h
[1] = system: A498
[2] = system: COLO 205
[3] = system: HL-60
[4] = system: HOP-62
[5] = system: HOP-92
[6] = system: KM-20L2
[7] = system: M14
[8] = system: Malme-3M
[9] = system: NCI-H226
[10] = system: OVCAR-5
[11] = system: SF-295
[12] = system: SK-MEL-5
[13] = system: SR
[14] = system: TK-10
[15] = system: UACC-62
[16] = system: UO-31
[17] = system: DU-145
[18] = system: Hs-578T
[19] = system: MDA-MB-231
[20] = system: PC-3

SMILES | GI50 [1] | GI50 [2] | GI50 [3] | GI50 [4] | GI50 [5] | GI50 [6] | GI50 [7] | GI50 [8] | GI50 [9] | GI50 [10] | GI50 [11] | GI50 [12] | GI50 [13] | GI50 [14] | GI50 [15] | GI50 [16] | GI50 [17] | GI50 [18] | GI50 [19] | GI50 [20]
CCOC(=O)/C(=C/c1ccc(OC)cc1)N(CC)CC | 24.5 µM (inactive) | > 100 µM (inactive) | 52.1 µM (inactive) | > 100 µM (inactive) | > 100 µM (inactive) | > 100 µM (inactive) | > 100 µM (inactive) | > 100 µM (inactive) | > 100 µM (inactive) | > 100 µM (inactive) | > 100 µM (inactive) | > 100 µM (inactive) | > 100 µM (inactive) | > 100 µM (inactive) | > 100 µM (inactive) | > 100 µM (inactive) |  |  |  | 
N#CC1(Cc2ccccc2Cl)c2ccccc2C=CN1C(=O)c1ccccc1 (centres undefined) | > 100 µM (inactive) | > 100 µM (inactive) | 29 µM (inactive) | > 100 µM (inactive) | 52.7 µM (inactive) | > 100 µM (inactive) | > 100 µM (inactive) | 34.1 µM (inactive) | > 100 µM (inactive) | > 100 µM (inactive) | 81.8 µM (inactive) | 47.4 µM (inactive) | 45.5 µM (inactive) | 46.8 µM (inactive) | > 100 µM (inactive) | 51.9 µM (inactive) |  |  |  | 
COC(=O)C1C(OCc2ccccc2)C2CCC1(OC)C=C2C (centres undefined) | > 100 µM (inactive) | > 100 µM (inactive) | 10.8 µM (inactive) | > 100 µM (inactive) | > 100 µM (inactive) | > 100 µM (inactive) | 60.8 µM (inactive) | > 100 µM (inactive) | 75.5 µM (inactive) | > 100 µM (inactive) | > 79.6 µM (inactive) | > 85.5 µM (inactive) | 17.8 µM (inactive) | > 74.3 µM (inactive) | 64.6 µM (inactive) | > 100 µM (inactive) |  |  |  | 
COc1ccccc1NC(=O)C1=C(C)NC(C)=C(C(=O)Nc2ccccc2OC)C1c1ccc(C2C(C(=O)Nc3ccccc3OC)=C(C)NC(C)=C2C(=O)Nc2ccccc2OC)cc1 | 6.12 µM (inactive) | 3.33 µM (inactive) | 1.46 µM (inactive) | 6.35 µM (inactive) | 3.29 µM (inactive) | 1.71 µM (inactive) | 1.61 µM (inactive) | 2.51 µM (inactive) | 3.52 µM (inactive) | 3.22 µM (inactive) | 1.53 µM (inactive) | 2.84 µM (inactive) | 1.53 µM (inactive) | 11.5 µM (inactive) | 1.68 µM (inactive) | 4.14 µM (inactive) |  |  |  | 
CC(C)(C)c1cc(C=C(C#N)C#N)cc(C(C)(C)C)c1O [TYRPHOSTIN A9] | 0.277 µM (active) |  | 0.329 µM (active) | 0.405 µM (active) | 0.0527 µM (active) | 4.61 µM (inactive) | 0.944 µM (active) | 0.439 µM (active) | 1.34 µM (inactive) | 4.03 µM (inactive) | 0.455 µM (active) | 0.376 µM (active) | 0.396 µM (active) | 2.05 µM (inactive) | 0.328 µM (active) | 0.315 µM (active) | 0.372 µM (active) | 0.384 µM (active) | 1.56 µM (inactive) | 0.256 µM (active)
N#C/C1=C(\N)CCSSSC1 | 28.9 µM (inactive) | 30.7 µM (inactive) | > 10 µM (inactive) | 29.2 µM (inactive) | 32.1 µM (inactive) | 26.9 µM (inactive) | 28.8 µM (inactive) | 34.5 µM (inactive) | 33.6 µM (inactive) | 53.1 µM (inactive) | 19.6 µM (inactive) | 26.1 µM (inactive) | 33.7 µM (inactive) | > 100 µM (inactive) |  | 56.4 µM (inactive) |  |  |  | 
[N-]=[N+]=NC1(c2ccccc2)C(=O)C(Cl)=C(c2ccccc2)N(c2ccccc2)C1=O (centres undefined) | > 100 µM (inactive) | > 100 µM (inactive) | 43.1 µM (inactive) | > 100 µM (inactive) | > 100 µM (inactive) | > 100 µM (inactive) | > 100 µM (inactive) | > 100 µM (inactive) |  | > 100 µM (inactive) | > 100 µM (inactive) | > 100 µM (inactive) | 65.5 µM (inactive) | > 100 µM (inactive) | > 100 µM (inactive) | 97.3 µM (inactive) |  |  |  | 
CC(=O)OC1(C#N)CC2OC1C1N=NN(C(=O)OC(C)(C)C)C21 (centres undefined) | > 100 µM (inactive) | > 100 µM (inactive) | 20.6 µM (inactive) | > 100 µM (inactive) | 20.7 µM (inactive) | > 100 µM (inactive) | 21.7 µM (inactive) | 34.7 µM (inactive) | 3.76 µM (inactive) | > 100 µM (inactive) | > 100 µM (inactive) | > 31.6 µM (inactive) | 15 µM (inactive) | > 100 µM (inactive) | 18.8 µM (inactive) | > 100 µM (inactive) |  |  |  | 
O=C1C=CC(=O)c2c1ccc1c3ccccc3n(-c3ccccc3)c21 | 17.9 µM (inactive) | 4.56 µM (inactive) | 0.501 µM (active) | 11 µM (inactive) | 2.61 µM (inactive) | 17 µM (inactive) | 7.78 µM (inactive) | 4.47 µM (inactive) | 18.3 µM (inactive) | 17.1 µM (inactive) | 14.6 µM (inactive) | 16.7 µM (inactive) | 0.271 µM (active) | 7.66 µM (inactive) | 13 µM (inactive) | 11.9 µM (inactive) | 19.8 µM (inactive) | 17.7 µM (inactive) | 4.45 µM (inactive) | 13.6 µM (inactive)

From ChEMBL document CHEMBL1201862, “PubChem BioAssay data set” (2004)
